The values below come from PMC10238325, “Optimization of antimicrobial peptides for the application against biocorrosive bacteria” (Applied Microbiology and Biotechnology, 2023).

The amount remaining is the share of the starting amount still present when the sample was taken.

≈ marks a conversion by molar mass, not a printed value. Where a SMILES comes first, the peptide text is derived from it. Where no end group is shown, it is not given here.

For series [1], the system named is Desulfovibrio indonesiensis DSM 15121. As to the kind of experiment: MIC assay against D. indonesiensis. Type of series: cell-based. Particulars: 95% growth inhibition; 96-well microdilution, n=3, OD600; modified Postgate medium with 2% NaCl, anaerobic, 48 h, 37 °C, without shaking. On the procedure: (§1) The following SRB were used: Desulfovibrio vulgaris DSM 644, Desulfovibrio desulfuricans DSM 642, and Desulfovibrio indonesiensis DSM 15121. The Postgate medium (DSMZ medium 63) with a modification of 0.004 g/L FeSO4 × 7 H2O and 0.3 g/L Tri-sodium citrate (and 2% NaCl for D. indonesiensis) was flushed with nitrogen gas. Each culture was subcultured 1:100. Cultivation occurred for 48 h, 37 °C (30 °C for D. desulfuricans), without shaking. The following SOB was used: Thiomonas intermedia DSM 18155. Therefore, the Thiomonas medium (DSMZ medium 35a) was used, subcultured 1:100, and cultivated for 48 h, 30 °C, 115 rpm. Escherichia coli K12 ATCC 25404 was grown in LB Lennox medium (Carl Roth GmbH & Co.KG Karlsruhe, Germany) for 18 h, 37 °C, 115 rpm and diluted 1:1000 in Mueller-Hinton broth (Carl Roth GmbH & Co.KG Karlsruhe, Germany). Incubation during the assay took place for 24 h, 37 °C, 115 rpm.
(§2) A stock solution of 1 mg/mL in milliQ from the respective peptide and a concentration range of 1000–1.95 μg/mL was prepared by serial 2-fold dilution. 20 μL of each test substance (n=3) per well was added to a 96-well microtiter plate (polystyrene). 100 μL of each bacteria suspension (start OD600: 0.001) was added to the well with test substance, as well as 120 μL as growth control (n=35) and 120 μL medium (n=1) as sterile control to an empty well. To avoid evaporation, all microtiter plates were cultivated in air-tight containers during the incubation period. Microtiter plates for testing on SRB were prepared in the anaerobic chamber (Coy Laboratory Products Inc. Grass Lake, United States of America) and cultivated in air-tight containers including Oxoid anaerobic bag (Thermo Fisher Scientific Inc. Waltham, United States of America) to ensure anaerobic conditions. The microtiter plates were measured before and after incubation at OD600, and the growth inhibition in % was determined with the following equation:1 inhibition%=ΔOD600testsubstance/ΔOD600growthcontrole∙100%
(§3) The minimum inhibitory concentration (MIC) describes the lowest concentration where no bacterial growth could be detected. Besides the MIC100, where a complete reduction of bacterial growth could be detected, other partial inhibitions such as MIC95 or MIC50, where 95% or 50% growth inhibition occurs, can be specified.
Background: Dilution methods test growth across graded concentrations, often in twofold steps.

Series [2] relates to Thiomonas intermedia DSM 18155. It is filed as cell-based. Particulars: DSM 18155, 48 h. On the procedure: as §1, §2, §3
The subject of series [3] is Desulfovibrio desulfuricans DSM 642. It is filed as cell-based. Particulars: DSM 642, 48 h. On the procedure:
as §1, §2, §3

Series [4] has as its system Desulfovibrio vulgaris DSM 644. Type of series: cell-based. The note with it: for MIC95 D. vulgaris: 95% growth inhibition, 96-well microdilution, 2-fold series 1000–1.95 μg/mL, n=3, OD600, modified Postgate medium, anaerobic. On the procedure: as §1, §2, §3
Another series is described as follows: in vitro. It is filed as in vitro ADME, Desulfovibrio vulgaris. The note with it: for remaining at 48 h, 1 mg/mL / remaining at 168 h, 1 mg/mL: cells or culture medium. On the procedure: The analysis of the peptides was performed on a RP-HPLC (Agilent 1100, detector: diode array detector G1315A, column: Phenomenex®-Aeris™ 2.6 μm Peptide XB-C18 100 Å,150 × 2.1 mm), and ESI-LC-MS was performed (Knauer, detector: Surveyor MSQ, column: Eurospher II 100-2 C18A, 100 × 2 mm, 2 μm). The gradient was performed with a flow rate of 0.25 mL/min from 99% of mobile phase A (0.1% TFA in milliQ) over 15 min to 95% of mobile phase B (0.1% TFA in acetonitrile), kept at 95% with B for 2 min, and equilibrated at 99% with A for another 3 min. 20 μL (RP-HPLC) and 10 μL (ESI-LC-MS) peptide solution (250 μg/mL in milliQ) was injected.
For the stability tests, a bacterial suspension (7 days old) of D. vulgaris was centrifuged at 5000 rpm for 10 min. 1 mg/mL peptide solution was prepared within the supernatant and incubated at 37 °C for 7 days. The respective aliquots (t=0, 48, 72, 168 h) were mixed 1:10 with quenching solution (milliQ + 0.08% trifluoroacetic acid) and analyzed in triplicates according to the protocol described above for RP-HPLC. In addition, after incubation in the supernatant (168 h), the peptide (P3.2.) was analyzed for activity using the MIC assay.

Another series relates to SRB. Particulars: ref Greene et al. [2006]; cited from earlier work. The source says:
The current strategy to control microbial-influenced corrosion is based on biocides, which lead to fast resistance, requiring higher and higher concentrations to eradicate the bacteria. Alternative treatment strategies are based on additives like D-amino acids or chelates to biocides to reduce the required biocide concentration by a synergistic effect. However, these additives are not inhibitory on their own, and although a reduced biocide concentration is required, the presence of biocide is still necessary (Jia et al. [2017]; Wen et al. [2012]; Wen et al. [2009]). In this paper, a new method ...

With `CC[C@H](C)[C@H](NC(=O)[C@H](CCCNC(=N)N)NC(=O)[C@H](CS)NC(=O)[C@H](CC(C)C)NC(=O)[C@@H](N)CCCNC(=N)N)C(=O)N[C@H](C(=O)N[C@H](C(=O)N[C@H](C(=O)N[C@@H](CCCNC(=N)N)C(=O)N[C@H](C(=O)N[C@@H](CS)C(=O)N[C@@H](CCCNC(=N)N)C(=O)O)C(C)C)[C@@H](C)CC)C(C)C)C(C)C` [Bactenecin] (H-RLCRIVVIRVCR-OH; N-terminus and C-terminus assumed), the “MIC95 D. indonesiensis” value in series [1] came out at 31.25 mg/L (≈ 21 µM). In series [2], the “MIC50 T. intermedia” value was 62.5 mg/L (≈ 42.1 µM). Further, the “MIC50 D. desulfuricans” value in series [3] amounted to 250 mg/L (≈ 168 µM). Further, in series [4] (48 h, 37 °C, without shaking), the “MIC95 D. vulgaris” value is 62.5 mg/L (≈ 42.1 µM). In addition, in the series “in vitro”, the “stability in supernatant (in words)” value is on record as “significant stability loss after only 48 h”; the fraction remaining at 48 h, 1 mg/mL was determined as 41%; the amount remaining at 168 h, 1 mg/mL turned out to be 17%.

With `CC(C)C[C@H](NC(=O)[C@H](CC(C)C)NC(=O)[C@H](CCCCN)NC(=O)[C@H](CCCCN)NC(=O)[C@H](CC(C)C)NC(=O)[C@H](Cc1c[nH]c2ccccc12)NC(=O)[C@H](CCCCN)NC(=O)[C@H](Cc1c[nH]c2ccccc12)NC(=O)[C@H](CC(C)C)NC(=O)[C@H](CCCCN)NC(=O)[C@H](CCCCN)NC(=O)CCCCCN)C(N)=O` [Peptide P3.2.] (HELM PEPTIDE1{[NCCCCCC(=O)[*:2]].K.K.L.W.K.W.L.K.K.L.L.[am]}$$$$V2.0), the “MIC95 D. indonesiensis” value in series [1] stood at 125 mg/L (≈ 78.3 µM). The “MIC50 D. desulfuricans” value in series [3] stood at 250 mg/L (≈ 157 µM). Further, in series [4] (48 h, 37 °C, without shaking), the “MIC95 D. vulgaris” value is 15.63 mg/L (≈ 9.79 µM). For the same compound, the “MIC50 D. vulgaris after incubation in supernatant” value in series [4] (DSM 644, 168 h) is 31.25 mg/L (≈ 19.6 µM). Moreover, in series [4] (peptide (1 mg/mL) first incubated 168 h in D. vulgaris supernatant, then dilution series, 48 h, 37 °C, without shaking), the “MIC95 D. vulgaris after incubation in supernatant” value was determined as 62.5 mg/L (≈ 39.2 µM). In “in vitro”, this compound registered a share remaining at 48 h, 1 mg/mL of 99% and a fraction remaining at 168 h, 1 mg/mL of 85%.

`CC(C)C[C@H](NC(=O)[C@H](CC(C)C)NC(=O)[C@H](CCCCN)NC(=O)[C@H](CCCCN)NC(=O)[C@H](CC(C)C)NC(=O)[C@H](Cc1c[nH]c2ccccc12)NC(=O)[C@H](CCCCN)NC(=O)[C@H](Cc1c[nH]c2ccccc12)NC(=O)[C@H](CC(C)C)NC(=O)[C@H](CCCCN)NC(=O)[C@H](CCCCN)NC(=O)CCCCCCCN)C(N)=O` [Peptide P3.3.] (HELM PEPTIDE1{[NCCCCCCCC(=O)[*:2]].K.K.L.W.K.W.L.K.K.L.L.[am]}$$$$V2.0): the “MIC50 D. desulfuricans” value in series [3] was 250 mg/L (≈ 154 µM).

Regarding `CCCCCCCCCC(=O)N[C@@H](CCCCN)C(=O)N[C@@H](CCCCN)C(=O)N[C@@H](CC(C)C)C(=O)N[C@@H](Cc1c[nH]c2ccccc12)C(=O)N[C@@H](CCCCN)C(=O)N[C@@H](Cc1c[nH]c2ccccc12)C(=O)N[C@@H](CC(C)C)C(=O)N[C@@H](CCCCN)C(=O)N[C@@H](CCCCN)C(=O)N[C@@H](CC(C)C)C(=O)N[C@@H](CC(C)C)C(N)=O` [Peptide P3.4.] (HELM PEPTIDE1{[CCCCCCCCCC(=O)[*:2]].K.K.L.W.K.W.L.K.K.L.L.[am]}$$$$V2.0), in series [1], the “MIC95 D. indonesiensis” value is 31.25 mg/L (≈ 19.1 µM). For the same compound, the “MIC50 D. desulfuricans” value in series [3] turned out to be 125 mg/L (≈ 76.3 µM). In series [4] (48 h, 37 °C, without shaking), the “MIC95 D. vulgaris” value was found to be 31.25 mg/L (≈ 19.1 µM).

Regarding `CCCCCCCCCCCC(=O)N[C@@H](CCCCN)C(=O)N[C@@H](CCCCN)C(=O)N[C@@H](CC(C)C)C(=O)N[C@@H](Cc1c[nH]c2ccccc12)C(=O)N[C@@H](CCCCN)C(=O)N[C@@H](Cc1c[nH]c2ccccc12)C(=O)N[C@@H](CC(C)C)C(=O)N[C@@H](CCCCN)C(=O)N[C@@H](CCCCN)C(=O)N[C@@H](CC(C)C)C(=O)N[C@@H](CC(C)C)C(N)=O` [Peptide P3.5.] (HELM PEPTIDE1{[CCCCCCCCCCCC(=O)[*:2]].K.K.L.W.K.W.L.K.K.L.L.[am]}$$$$V2.0), the “MIC95 D. indonesiensis” value in series [1] is 31.25 mg/L (≈ 18.8 µM). In addition, the “MIC50 D. desulfuricans” value in series [3] was 62.5 mg/L (≈ 37.5 µM). Besides, in series [4] (48 h, 37 °C, without shaking), the “MIC95 D. vulgaris” value came out at 62.5 mg/L (≈ 37.5 µM).

As to `CCCCCCCCCCCCCC(=O)N[C@@H](CCCCN)C(=O)N[C@@H](CCCCN)C(=O)N[C@@H](CC(C)C)C(=O)N[C@@H](Cc1c[nH]c2ccccc12)C(=O)N[C@@H](CCCCN)C(=O)N[C@@H](Cc1c[nH]c2ccccc12)C(=O)N[C@@H](CC(C)C)C(=O)N[C@@H](CCCCN)C(=O)N[C@@H](CCCCN)C(=O)N[C@@H](CC(C)C)C(=O)N[C@@H](CC(C)C)C(N)=O` [Peptide P3.6.] (HELM PEPTIDE1{[CCCCCCCCCCCCCC(=O)[*:2]].K.K.L.W.K.W.L.K.K.L.L.[am]}$$$$V2.0), the “MIC95 D. indonesiensis” value in series [1] was 62.5 mg/L (≈ 36.9 µM). Further, the “MIC50 D. desulfuricans” value in series [3] was determined as 125 mg/L (≈ 73.8 µM). For the same compound, the “MIC95 D. vulgaris” value in series [4] (48 h, 37 °C, without shaking) came to 125 mg/L (≈ 73.8 µM).

On to `O=S(=O)([O-])[O-].OC[P+](CO)(CO)CO.OC[P+](CO)(CO)CO` [THPS, tetrakis(hydroxymethyl)phosphonium sulfate], for which the “concentration required to inhibit SRB growth” value with SRB is 40 µg/mL.

In the case of Ac-KKLWKWLKKLL-NH2 [Peptide P3.1.], in series [1], the “MIC95 D. indonesiensis” value was 125 mg/L. For the same compound, the “MIC50 D. desulfuricans” value in series [3] was found to be 500 mg/L. Moreover, the “MIC95 D. vulgaris” value in series [4] (48 h, 37 °C, without shaking) turned out to be 31.25 mg/L.

With FFGKVLKLIRKIF [DASamP1], in series [2], the “MIC50 T. intermedia” value was 125 mg/L. The “MIC50 D. desulfuricans” value in series [3] stood at 500 mg/L. Besides, the amount remaining at 48 h, 1 mg/mL in “in vitro” turned out to be 99%.

As to FKKFWKWFRRF [Peptide S6L3-33], the “MIC50 T. intermedia” value in series [2] worked out at 62.5 mg/L. Also, the “MIC50 D. desulfuricans” value in series [3] worked out at 500 mg/L. In the series “in vitro”, this compound gave a share remaining at 48 h, 1 mg/mL of 93% and a fraction remaining at 168 h, 1 mg/mL of 85%.

Regarding KKLLKWLKKLL [Peptide L5K5W], the “MIC50 T. intermedia” value in series [2] was determined as 500 mg/L. For the same compound, the “MIC50 D. desulfuricans” value in series [3] was more than 1000 mg/L. In the series “in vitro”, this compound displayed a share remaining at 48 h, 1 mg/mL of 91% and an amount remaining at 168 h, 1 mg/mL of 80%.

KKLWKWLKKLL [Peptide L5K5W-W4I6]: the “MIC50 D. desulfuricans” value in series [3] is more than 1000 mg/L. Further, in “in vitro”, the amount remaining at 48 h, 1 mg/mL worked out at 94% and the share remaining at 168 h, 1 mg/mL is 86%.

Consider KKLWKWLKKLL-NH2 [Peptide P2.1.], for which the “MIC50 D. desulfuricans” value in series [3] came to 250 mg/L.

As to RRLWRWLRRLL [Peptide P1.1.], the “MIC50 D. desulfuricans” value in series [3] was determined as 1000 mg/L.
